Assays:
JAK2 (h) = biological target: T1, JAK2 (h) (Homo sapiens, UniProt O60674); assay: JAK2 (h) kinase assay; format: biochemical
T1 construct: purchased Millipore UK Ltd (contract assay service)
Description: (§1) Kinase assays can be performed by measurement of incorporation of γ-^33P ATP into immobilized myelin basic protein (MBP). High binding white 384 well plates (Greiner) are coated with MBP (Sigma #M-1891) by incubation of 60 μL/well of 20 μg/mL MBP in Tris-buffered saline (TBS; 50 mM Tris pH 8.0, 138 mM NaCl, 2.7 mM KCl) for 24 h at 4° C. Plates are washed 3× with 100 μL TBS. Kinase reactions are carried out in a total volume of 34 μL in kinase buffer (according to the need to make, for example, 5 mM Hepes pH 7.6, 15 mM NaCl, 0.01% bovine gamma globulin (Sigma #1-5506), 10 mM MgCl2, 1 mM DTT, 0.02% TritonX-100). Compound dilutions are performed in DMSO and added to assay wells to a final DMSO concentration of 1%. Each data point is measured in duplicate, and at least two duplicate assays are performed for each individual compound determination. […] A mixture of unlabeled ATP and γ-^33P ATP is added to start the reaction (2×10^6 cpm of γ-^33P ATP per well (3000 Ci/mmole) and 10 μM unlabeled ATP, typically. The reactions are carried out for 1 h at room temperature with shaking. Plates are washed 7× with TBS, followed by the addition of 50 µL/well scintillation fluid (Wallac). Plates are read using a Wallac Trilux counter. This is only one format of such assays; various other formats are possible, as known to one skilled in the art. […]

FLT3 (h) = biological target: T2, FLT3 (h) (Homo sapiens, UniProt P36888); assay: FLT3 (h) kinase assay; format: biochemical
T2 construct: purchased Millipore UK Ltd (contract assay service)
T2 sequence (P36888 27-993): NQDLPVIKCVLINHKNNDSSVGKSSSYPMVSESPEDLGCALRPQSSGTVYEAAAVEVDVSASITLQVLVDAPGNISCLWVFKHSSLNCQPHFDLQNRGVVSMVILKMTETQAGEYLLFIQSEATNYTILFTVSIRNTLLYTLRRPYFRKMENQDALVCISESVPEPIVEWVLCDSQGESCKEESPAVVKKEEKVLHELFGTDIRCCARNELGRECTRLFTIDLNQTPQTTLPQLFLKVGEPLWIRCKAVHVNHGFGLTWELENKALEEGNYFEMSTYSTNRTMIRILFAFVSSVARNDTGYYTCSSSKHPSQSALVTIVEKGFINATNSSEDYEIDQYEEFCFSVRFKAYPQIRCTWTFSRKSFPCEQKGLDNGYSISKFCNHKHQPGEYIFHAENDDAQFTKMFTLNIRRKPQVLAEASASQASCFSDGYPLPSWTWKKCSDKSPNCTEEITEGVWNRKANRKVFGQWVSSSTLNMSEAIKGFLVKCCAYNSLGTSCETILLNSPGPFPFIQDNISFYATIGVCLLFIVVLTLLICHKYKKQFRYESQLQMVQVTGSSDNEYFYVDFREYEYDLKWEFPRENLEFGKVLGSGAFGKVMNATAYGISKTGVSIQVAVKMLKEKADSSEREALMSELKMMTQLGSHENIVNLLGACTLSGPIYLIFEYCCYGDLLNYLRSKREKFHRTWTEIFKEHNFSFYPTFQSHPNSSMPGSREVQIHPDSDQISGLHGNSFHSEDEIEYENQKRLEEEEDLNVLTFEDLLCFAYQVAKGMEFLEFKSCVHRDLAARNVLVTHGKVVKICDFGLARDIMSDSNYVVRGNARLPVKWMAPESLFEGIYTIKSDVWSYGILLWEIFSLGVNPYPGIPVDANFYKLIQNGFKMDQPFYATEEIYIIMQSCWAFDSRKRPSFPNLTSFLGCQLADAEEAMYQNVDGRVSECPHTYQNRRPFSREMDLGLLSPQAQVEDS
Description: as §1

T1 sequence (O60674 whole entry): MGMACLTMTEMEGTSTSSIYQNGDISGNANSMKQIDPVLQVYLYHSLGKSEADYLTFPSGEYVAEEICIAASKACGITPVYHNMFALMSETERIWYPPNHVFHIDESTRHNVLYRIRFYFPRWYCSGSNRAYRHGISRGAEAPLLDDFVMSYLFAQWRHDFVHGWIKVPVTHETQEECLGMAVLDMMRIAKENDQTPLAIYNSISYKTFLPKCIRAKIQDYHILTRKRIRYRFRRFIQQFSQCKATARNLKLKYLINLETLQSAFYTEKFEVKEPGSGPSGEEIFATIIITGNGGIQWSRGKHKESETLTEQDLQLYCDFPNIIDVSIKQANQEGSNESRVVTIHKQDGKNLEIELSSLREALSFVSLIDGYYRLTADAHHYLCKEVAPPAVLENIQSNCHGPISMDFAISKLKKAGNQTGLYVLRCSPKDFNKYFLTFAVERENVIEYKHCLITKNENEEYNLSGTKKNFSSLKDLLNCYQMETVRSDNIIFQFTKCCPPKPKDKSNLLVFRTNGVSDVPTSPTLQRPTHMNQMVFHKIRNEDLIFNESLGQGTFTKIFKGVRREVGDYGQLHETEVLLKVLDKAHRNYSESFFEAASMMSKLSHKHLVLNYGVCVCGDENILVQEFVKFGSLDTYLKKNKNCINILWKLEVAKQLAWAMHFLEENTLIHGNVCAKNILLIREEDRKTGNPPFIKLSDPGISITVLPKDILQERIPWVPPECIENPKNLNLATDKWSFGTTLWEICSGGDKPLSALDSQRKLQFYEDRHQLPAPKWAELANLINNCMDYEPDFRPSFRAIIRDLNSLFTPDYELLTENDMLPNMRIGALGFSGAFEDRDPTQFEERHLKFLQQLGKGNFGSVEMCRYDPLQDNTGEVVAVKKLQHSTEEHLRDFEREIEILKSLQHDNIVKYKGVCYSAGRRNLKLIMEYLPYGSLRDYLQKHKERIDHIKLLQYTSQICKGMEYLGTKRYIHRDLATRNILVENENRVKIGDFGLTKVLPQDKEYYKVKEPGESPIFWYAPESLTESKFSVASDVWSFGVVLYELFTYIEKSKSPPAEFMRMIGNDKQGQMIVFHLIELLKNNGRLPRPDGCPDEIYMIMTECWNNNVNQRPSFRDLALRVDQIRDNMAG

IC50 (JAK2 (h)): 350 nM
IC50 (FLT3 (h)): 846 nM
Compound: CC(C)CS(=O)(=O)N[C@H]1COC2C1OC[C@H]2Nc1nc(Nc2cnn(C)c2)ncc1Cl (stereo partly drawn) [Ex. 2, N-((3S,6R)-6-((5-chloro-2-((1-methyl-1H-pyrazol-4-yl)amino)pyrimidin-4-yl)amino)hexahydrofuro[3,2-b]furan-3-yl)-2-methylpropane-1-sulfonamide]

— patent US20170081338A1, “SUBSTITUTED HETEROARYL COMPOUNDS AND METHODS OF USE” (Sunshine Lake Pharma Co., Ltd., priority 2015, published 2017)
